# Activity calls are given as the source filed them. No cut-off for these calls is given here.
# What was measured:
# HCT-116 [1] = assay: Upregulation of TRAIL mRNA expression in human HCT-116 cells at 0.25 uM incubated for 12 hrs by RT-PCR analysis; format: functional, cell-based
# HCT-116 [2] = assay: Antiproliferative activity against human HCT-116 cells assessed as inhibition of cell growth incubated for 72 hrs by luminescence based analysis; format: functional; details: HCT-116, 72 h
# [3] = Toxicity in BALB/c mouse xenografted with human HCT-116 cells assessed as morphological changes in spleen at 12.5 to 25 mg/kg, po qd administered for 21 days by H & E staining based microscopic analysis; format: organism-based; details: in vivo, 504 h, dose 12.5-25 mg/kg, time 21 day
# HCT-116 [4] = assay: Induction of apoptosis in human HCT-116 cells assessed as viable cells at 0.25 uM incubated for 24 hrs by AnnexinV-FITC/PI staining based flow cytometry (reference value: 93.64%); format: functional; details: read-out: Activity
# HCT-116 [5] = assay: Induction of cell cycle arrest in human HCT-116 cells assessed as accumulation of cells at S phase incubated for 12 hrs by propidium iodide staining based flow cytometric analysis; format: functional; details: dose 0.125-0.5 µM, DDE = dose-dependent effect
# HCT-116 [6] = assay: Induction of apoptosis in human HCT-116 cells assessed as decrease in Bcl2 protein expression incubated for 12 hrs by Western blot analysis; format: functional, cell-based; details: dose 0.125-0.5 µM, DDE = dose-dependent effect
# Histone deacetylase 1 = Histone deacetylase 1 (Homo sapiens, UniProt Q13547); assay: Inhibition of HDAC1 in human HCT-116 cells assessed as increase in TRAIL protein expression at 0.5 uM incubated for 12 hrs by Western blot analysis; format: cell-based
# HCT-116 [7] = assay: Induction of apoptosis in human HCT-116 cells assessed as late apoptotic cells at 0.25 uM incubated for 24 hrs by AnnexinV-FITC/PI staining based flow cytometry (reference value: 0.82 %); format: functional
# Histone deacetylase 2 = Histone deacetylase 2 (Homo sapiens, UniProt Q92769); assay: Inhibition of human HDAC2 using RHKKAc fluorogenic peptide as substrate preincubated for 10 mins followed by substrate addition by fluorescence based analysis
# Histone deacetylase 8 = molecular target: T1, Histone deacetylase 8 (Homo sapiens, UniProt Q9BY41); assay: Inhibition of human HDAC8 using RHKAcKAc as fluorogenic substrate preincubated for 10 mins followed by substrate addition by fluorescence based analysis
# T1 sequence (Q9BY41 whole entry): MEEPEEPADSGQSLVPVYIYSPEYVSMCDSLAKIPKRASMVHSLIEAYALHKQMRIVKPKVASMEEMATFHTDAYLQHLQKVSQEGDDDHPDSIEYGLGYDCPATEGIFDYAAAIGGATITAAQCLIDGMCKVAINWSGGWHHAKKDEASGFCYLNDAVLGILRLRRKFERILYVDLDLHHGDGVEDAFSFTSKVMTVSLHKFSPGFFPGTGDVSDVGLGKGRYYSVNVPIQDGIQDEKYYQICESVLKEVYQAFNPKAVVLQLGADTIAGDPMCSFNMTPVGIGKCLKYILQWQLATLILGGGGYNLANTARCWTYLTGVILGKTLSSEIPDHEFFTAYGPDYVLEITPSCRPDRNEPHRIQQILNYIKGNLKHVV
# HepG2 = assay: Antiproliferative activity against human HepG2 cells assessed as inhibition of cell growth incubated for 72 hrs by luminescence based analysis; format: functional; details: HepG2, 72 h
# HCT-116 [8] = assay: Induction of apoptosis in human HCT-116 cells assessed as increase in Bax protein expression incubated for 12 hrs by Western blot analysis; format: functional, cell-based; details: dose 0.125-0.5 µM, DDE = dose-dependent effect
# HCT-116 [9] = assay: Antitumor activity against human HCT-116 cells xenografted in BALB/c mouse assessed as reduction in tumor growth at 50 mg/kg, po qd administered for 3 weeks and measured every 3 days by vernier caliper analysis; format: functional, organism-based
# [10] = Toxicity in BALB/c mouse xenografted with human HCT-116 cells assessed as morphological changes in heart at 12.5 to 25 mg/kg, po qd administered for 21 days by H & E staining based microscopic analysis; format: organism-based; details: in vivo, 504 h, dose 12.5-25 mg/kg, time 21 day
# Histone deacetylase 2, sequence (Q92769 whole entry): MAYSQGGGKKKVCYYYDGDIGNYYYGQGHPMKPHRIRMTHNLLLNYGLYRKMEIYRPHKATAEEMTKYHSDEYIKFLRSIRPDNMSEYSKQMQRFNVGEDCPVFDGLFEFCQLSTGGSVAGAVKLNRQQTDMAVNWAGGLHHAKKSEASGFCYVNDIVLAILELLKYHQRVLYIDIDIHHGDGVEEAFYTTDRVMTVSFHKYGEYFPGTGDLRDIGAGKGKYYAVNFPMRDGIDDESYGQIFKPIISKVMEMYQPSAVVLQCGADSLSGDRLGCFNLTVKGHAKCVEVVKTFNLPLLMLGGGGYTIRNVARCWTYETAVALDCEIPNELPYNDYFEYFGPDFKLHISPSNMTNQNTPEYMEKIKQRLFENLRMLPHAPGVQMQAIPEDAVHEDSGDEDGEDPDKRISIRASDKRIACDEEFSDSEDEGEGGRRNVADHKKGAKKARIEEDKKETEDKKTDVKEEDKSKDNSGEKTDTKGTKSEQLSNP
# Histone deacetylase 1, sequence (Q13547 whole entry): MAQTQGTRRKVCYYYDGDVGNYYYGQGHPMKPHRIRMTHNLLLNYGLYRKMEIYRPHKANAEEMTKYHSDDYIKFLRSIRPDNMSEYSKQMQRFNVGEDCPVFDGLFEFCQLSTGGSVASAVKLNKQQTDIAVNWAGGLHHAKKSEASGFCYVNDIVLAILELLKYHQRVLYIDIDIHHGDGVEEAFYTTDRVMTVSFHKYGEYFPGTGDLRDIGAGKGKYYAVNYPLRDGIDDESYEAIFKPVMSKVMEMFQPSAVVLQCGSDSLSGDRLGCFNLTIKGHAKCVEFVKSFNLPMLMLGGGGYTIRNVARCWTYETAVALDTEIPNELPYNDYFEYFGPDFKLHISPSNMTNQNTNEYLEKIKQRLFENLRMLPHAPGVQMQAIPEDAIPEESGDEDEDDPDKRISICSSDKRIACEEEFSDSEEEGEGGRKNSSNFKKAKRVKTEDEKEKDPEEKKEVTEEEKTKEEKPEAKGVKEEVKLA
structure (smiles),measurement,setting,value
COc1ccccc1CN1C(=O)C2=C(CCN(Cc3ccc(C(=O)Nc4ccccc4N)cc3)C2)N2CCN=C12,Activity,HCT-116 [1],Active
same,IC50,HCT-116 [2],653 nM
same,Activity,[3],Non-Toxic
same,viability at 0.25 µM,HCT-116 [4],93%
same,Activity,HCT-116 [5],Dde
same,Activity,HCT-116 [6],Dde
same,inhibition,Histone deacetylase 1,Active
same,Activity,HCT-116 [7],1.82%
same,IC50,Histone deacetylase 2,346 nM
same,IC50,Histone deacetylase 8,> 10 µM
same,IC50,HepG2,2670 nM
same,Activity,HCT-116 [8],Dde
same,Activity,HCT-116 [9],Active
same,Activity,[10],Non-Toxic
